Measured values: the NIST ThermoML archive (doi:10.1021/acs.jced.7b00578)
“And” between values parts separate entries of the source, which are not always exact repeats. Equal values may be shown once. Numbers after ± are expanded uncertainties.

Columns and labels:
[1] = molar heat capacity at constant pressure; details: 101.33 kPa, Liquid, Extra sensitive DSC
[2] = Molar enthalpy of transition or fusion; details: Crystal; DSC
[3] = for vapor or sublimation pressure: Liquid, Closed cell (Static) method

CC1CCC(=O)O1 (stereo not given) [γ-valerolactone]
Details | molar heat capacity at constant pressure [J/K/mol] | vapor or sublimation pressure
[1], 265.37 K | 167.7 ± 6.5 | –
[1], 270 K | 168.6 ± 6.5 | –
[1], 275 K | 169.6 ± 6.6 | –
[1], 280 K | 170.7 ± 6.6 | –
[1], 285 K | 171.81 ± 6.7 | –
[1], 290 K | 172.91 ± 6.7 | –
[1], 295 K | 174.11 ± 6.7 | –
[1], 300 K | 175.31 ± 6.8 | –
[1], 305 K | 176.61 ± 6.8 | –
[1], 310 K | 177.81 ± 6.9 | –
[1], 315 K | 179.11 ± 6.9 | –
[1], 320 K | 180.42 ± 7 | –
[1], 325 K | 181.72 ± 7 | –
[1], 330 K | 183.02 ± 7.1 | –
[1], 335 K | 184.22 ± 7.1 | –
[1], 340 K | 185.52 ± 7.2 | –
[1], 345 K | 186.72 ± 7.2 | –
[1], 350 K | 187.93 ± 7.3 | –
[1], 355 K | 189.13 ± 7.3 | –
[1], 358.5 K | 189.93 ± 7.4 | –
[3], 238.07 K | – | 0.00014 ± 0.00011 kPa
[3], 238.08 K | – | 0.00015 ± 0.00011 kPa
[3], 238.09 K | – | 0.00015 ± 0.00011 kPa
[3], 243.06 K | – | 0.00026 ± 0.00011 kPa
[3], 243.07 K | – | 0.00026 ± 0.00011 kPa
[3], 248.13 K | – | 0.00048 ± 0.00012 kPa
[3], 253.14 K | – | 0.00082 ± 0.00012 kPa
[3], 258.15 K | – | 0.00138 ± 0.00013 kPa
[3], 263.14 K | – | 0.00228 ± 0.00015 kPa
[3], 268.14 K | – | 0.00369 ± 0.00018 kPa
[3], 273.14 K | – | 0.00586 ± 0.00025 kPa
[3], 273.15 K | – | 0.00586 ± 0.00025 kPa
[3], 273.63 K | – | 0.00612 ± 0.00026 kPa
[3], 273.64 K | – | 0.00612 ± 0.00026 kPa
[3], 278.14 K | – | 0.00912 ± 0.00037 kPa
[3], 283.14 K | – | 0.01396 ± 0.00053 kPa and 0.01395 ± 0.00053 kPa
[3], 288.14 K | – | 0.02098 ± 0.00064 kPa and 0.02097 ± 0.00064 kPa
[3], 288.15 K | – | 0.021 ± 0.00064 kPa
[3], 293.13 K | – | 0.03106 ± 0.0008 kPa
[3], 293.14 K | – | 0.03111 ± 0.0008 kPa and 0.03109 ± 0.0008 kPa
[3], 298.14 K | – | 0.04532 ± 0.001 kPa and 0.04531 ± 0.001 kPa
[3], 303.13 K | – | 0.06501 ± 0.0013 kPa and 0.06502 ± 0.0013 kPa
[3], 308.14 K | – | 0.09212 ± 0.0018 kPa and 0.09211 ± 0.0018 kPa

Details | Molar enthalpy of transition or fusion [kcal/mol]
[2] | 1.7 ± 0.143

Details | Normal melting temperature [°C]
[3], Crystal, DTA | -34.81 ± 0.7
